Experimental findings from patent US6500853B1, “Inhibitors of phospholipase enzymes” (Genetics Institute, LLC, priority 1998, dated 2002) are described below.

In the test the target is T1, cPLA2 (Homo sapiens, UniProt P47712).
T1 sequence (P47712 1-749): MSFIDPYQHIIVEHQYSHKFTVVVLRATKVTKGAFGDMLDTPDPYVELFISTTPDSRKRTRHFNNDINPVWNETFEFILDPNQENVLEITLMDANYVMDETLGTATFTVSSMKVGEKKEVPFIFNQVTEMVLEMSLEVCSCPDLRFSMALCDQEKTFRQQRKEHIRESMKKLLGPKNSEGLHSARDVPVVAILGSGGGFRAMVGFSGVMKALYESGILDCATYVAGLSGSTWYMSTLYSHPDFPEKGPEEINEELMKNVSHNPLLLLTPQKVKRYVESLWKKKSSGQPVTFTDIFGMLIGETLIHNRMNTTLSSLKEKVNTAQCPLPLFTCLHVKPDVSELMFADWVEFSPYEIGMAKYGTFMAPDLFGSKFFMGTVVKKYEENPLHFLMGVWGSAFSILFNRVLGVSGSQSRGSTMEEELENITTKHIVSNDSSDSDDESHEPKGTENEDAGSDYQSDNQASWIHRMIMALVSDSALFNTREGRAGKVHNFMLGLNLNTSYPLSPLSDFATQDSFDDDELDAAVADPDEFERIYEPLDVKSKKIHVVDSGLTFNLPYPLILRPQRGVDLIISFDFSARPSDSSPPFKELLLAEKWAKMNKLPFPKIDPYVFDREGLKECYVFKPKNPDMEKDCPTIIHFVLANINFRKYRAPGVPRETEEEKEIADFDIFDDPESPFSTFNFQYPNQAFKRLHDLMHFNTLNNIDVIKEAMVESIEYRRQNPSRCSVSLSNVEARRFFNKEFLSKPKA
As to the kind of experiment: Coumarin Assay (cPLA2 inhibition). It is filed as biochemical. As to conditions: for inhibition at 12 µM: CONCENTRATION 12 micromolar; for inhibition at 2.5 µM: CONCENTRATION 2.5 micromolar; for inhibition at 10 µM: CONCENTRATION 10 micromolar. The procedure: Table I reports data for the compounds described in the examples above in cPLA2 inhibition assays (described below). In the data columns of Tables I and II, assay results are reported as a percent inhibition at the concentration specified.
7-hydroxycoumarinyl 6-heptenoate was used as a monomeric substrate for cPLA2 as reported previously (Huang, Z. et al., 1994, Nalytical Biochemistry 222, 110-115). Inhibitors were mixed with 200 μL assay buffer (80 mM Heped, pH 7.5, 1 mM EDTA) containing 60 μM 7-hydroxycoumarinyl 6-heptenoate. The reaction was initiated by adding 4 μg cPLA2 in 50 μL assay buffer. Hydrolysis of the 7-hydroxycounarimyl 6-heptenoate ester was monitored in a fluorometer by exciting at 360 nm and monitoring emission at 460 nm. Enzyme activity is proportional to the increase in emission at 460 nm per minute. In the presence of a cPLA2 inhibitor, the rate of increase is less. The percent inhibition for corresponding concentrations of compounds herein in this Coumarin assay are provided below in Table I.

As usually defined, the inhibition is the relative decrease from the control value, in per cent. Turning to `COc1cc(C(=O)NS(=O)(=O)c2sc(C)nc2C)ccc1Cc1cn(C(c2ccccc2)c2ccccc2)c2ccc(NC(=O)OC3CCCC3)cc12` [Example 32, cyclopentyl N-{1-benzhydryl-3-[4-({[(2,4-dimethyl-1,3-thiazol-5-yl)sulfonyl]amino}carbonyl)-2-methoxybenzyl]-1H-indol-5-yl}carbamate], the inhibition at 4 µM (CONCENTRATION 4 micromolar, read-out: PERCENT INHIBITION @) came out at 50%. Where the note is “CONCENTRATION 4.4 micromolar, read-out: PERCENT INHIBITION @”, the inhibition at 4.4 µM was found to be 50%.

Regarding `O=C(O)CCc1ccc(OCCc2c(CO)n(C(c3ccccc3)c3ccccc3)c3ccc(Cl)cc23)cc1` [Example 167, 3-(4-{2-[1-benzhydryl-5-chloro-2-(hydroxymethyl)-1H-indol-3-yl]ethoxy}phenyl)propanoic acid], for the setting “Conc 1.3 uM, read-out: % Inhibition”, the inhibition at 1.3 µM was found to be 50%. `O=C(Nc1cccc(C(=O)O)c1)C(=O)c1cn(Cc2ccc(COc3cc(C(F)(F)F)cc(C(F)(F)F)c3)cc2)c2ccccc12` [Example 60, 3-({2-[1-(4-{[3,5-bis(trifluoromethyl)phenoxy]methyl}benzyl)-1H-indol-3yl]-2oxoacetyl}amino)benzoic acid]: the inhibition at 12.5 µM (CONCENTRATION 12.5 micromolar, read-out: PERCENT INHIBITION @) amounted to 50%. Regarding `COc1cc(C(=O)NS(=O)(=O)c2ccccc2C)ccc1Cc1cn(C(c2ccccc2)c2ccccc2)c2ccc(NC(=O)C3CCCC3)cc12` [Example 43, N-{1-benzhydryl-3-[2-methoxy-4-({[(2-methylphenyl)sulfonyl]amino}carbonyl)benzyl]-1H-indol-5-yl}cyclopentanecarboxamide], the inhibition at 12 µM (read-out: PERCENT INHIBITION @) was 50%. Also, the inhibition at 14 µM (CONCENTRATION 14 micromolar, read-out: PERCENT INHIBITION @) stood at 50%. With `Cc1c(CCOc2ccc(C(=O)O)cc2)c2cc(Br)ccc2n1C(c1ccccc1)c1ccccc1` [Example 145, 4-[2-(1-benzhydryl-5-bromo-2-methyl-1H-indol-3-yl)ethoxy]benzoic acid], the inhibition at 2.6 µM (Conc 2.6 uM) came out at 50%. For `COc1cc(C(=O)NS(=O)(=O)c2nn(C)c(=NC(C)=O)s2)ccc1Cc1cn(C(c2ccccc2)c2ccccc2)c2ccc(NC(=O)OC3CCCC3)cc12` [Example 29, cyclopentyl N-(3-{4-[({[5-(acetylimino)-4-methyl-4,5-dihydro1,3,4-thiadiazol-2-yl]sulfonyl}amino)carbonyl]-2-methoxybenzyl}-1-benzhydryl-1H-indol-5-yl)carbamate], for the setting “read-out: PERCENT INHIBITION @”, the inhibition at 2.5 µM stood at 50%. Further, under “CONCENTRATION 3.4 micromolar, read-out: PERCENT INHIBITION @”, the inhibition at 3.4 µM came to 50%. In addition, the inhibition at 6 µM (CONCENTRATION 6 micromolar, read-out: PERCENT INHIBITION @) turned out to be 87%.

For the molecule `Cc1c(C(=O)O)c2cc(OCc3ccccc3)ccc2n1Cc1ccccc1` [Example 111, 1-benzyl-5-(benzyloxy)-2-methyl-1H-indole-3-carboxylic acid], the “PERCENT INHIBITION @” value (CONCENTRATION 50 micromolar) came to 15%. Also, the inhibition at 50 µM (CONCENTRATION 50 micromolar, read-out: PERCENT INHIBITION @) stood at 16%. Turning to `O=C(O)c1ccc(OCCc2c(COCc3ccccc3[N+](=O)[O-])n(C(c3ccccc3)c3ccccc3)c3ccc(Cl)cc23)cc1` [Example 155, 4-[2-(1-benzhydryl-5-chloro-2-{[(2-nitrobenzyl)oxy]methyl}-1H-indol-3-yl)ethoxy]benzoic acid], the inhibition at 2.2 µM (Conc 2.2 uM, read-out: % Inhibition) is 50%. In general, % Inhibition refers to the drop in the measured response relative to a control, in per cent. Consider “3-{4-[2-(1-benzhydryl-5-chloro-2-{[(2,6-difluorobenzyl)oxy]methyl}-1H-indol-3-yl)ethoxy]phenyl}propanoic acid [Example 166]”, for which, under “Conc 0.31 uM”, the “% Inhibition” value is 58%. For `O=C(Nc1cccc(C(=O)O)c1)C(=O)c1cn(Cc2ccccc2S(=O)(=O)Cc2ccccc2)c2ccccc12` [Example 64, 3-[(2-{1-[2-(benzylsulfonyl)benzyl]-1H-indol-3-yl}-2-oxoacetyl)amino]benzoic acid], where the note is “CONCENTRATION 32 micromolar, read-out: PERCENT INHIBITION @”, the inhibition at 32 µM stood at 50%. The inhibition at 37 µM (CONCENTRATION 37 micromolar, read-out: PERCENT INHIBITION @) was determined as 50%.

As for `O=C(O)C1CC1Cc1cn(C(c2ccc(O)cc2)c2ccc(O)cc2)c2cc(Cl)ccc12` (stereo not shown) [Example 129, 2-({1-[bis(4-hydroxyphenyl)methyl]-6-chloro-1H-indol-3-yl}methyl)cyclopropanecarboxylic acid], the inhibition at 1.1 µM (CONCENTRATION 1.1 micromolar, read-out: PERCENT INHIBITION @) amounted to 50%. Consider `O=C(O)c1ccc(OCCc2c(COCc3ccc(F)cc3)n(C(c3ccccc3)c3ccccc3)c3ccc(Cl)cc23)cc1` [Example 161, 4-[2-(1-benzhydryl-5-chloro-2-{[(4-fluorobenzyl)oxy]methyl}-1H-indol-3-yl)ethoxy]benzoic acid], for which the inhibition at 1.8 µM (Conc 1.8 uM, read-out: % Inhibition) was 50%. For the molecule `O=C(O)C1CC1Cc1cn(C(c2ccccc2)c2ccccc2)c2cc(Cl)c(Cl)cc12` (stereo not shown) [Example 128, 2-[(1-benzhydryl-5,6-dichloro-1H-indol-3-yl)methyl]cyclopropanecarboxylic acid], the inhibition at 0.9 µM (CONCENTRATION 0.9 micromolar, read-out: PERCENT INHIBITION @) was determined as 50%. Turning to `O=C(Cc1cn(Cc2ccc(C(F)(F)F)cc2C(F)(F)F)c2ccc(OCc3ccccc3)cc12)Nc1cccc(C(=O)O)c1` [Example 106, 3-[(2-{5-(benzyloxy)-1-[2,4-bis(trifluoromethyl)benzyl]-1H-indol-3-yl}acetyl)amino]benzoic acid], the inhibition at 7 µM (CONCENTRATION 7 micromolar, read-out: PERCENT INHIBITION @) was 50%. Moreover, the inhibition at 12 µM (read-out: PERCENT INHIBITION @) came to 50%.

Take `O=C(O)COc1ccc(Cc2cn(C(c3ccccc3)c3ccccc3)c3cc(Cl)ccc23)cc1` [Example 119, 2-{4-[(1-benzhydryl-6-chloro-1H-indol-3-yl)methyl]phenoxy}acetic acid]: the inhibition at 2.5 µM (read-out: PERCENT INHIBITION @) was determined as 50%.

Consider `N#Cc1ccc(COCc2c(CCOc3ccc(C(=O)O)cc3)c3cc(Cl)ccc3n2C(c2ccccc2)c2ccccc2)cc1` [Example 163, 4-[2-(1-benzhydryl-5-chloro-2{[(4-cynobenzyl)oxy]methyl}-1H-indol-3-yl)ethoxy]benzoic acid], for which the “% Inhibition” value (Conc 1.25 uM) was 50%.

Consider `O=C(O)c1ccc(OCCc2c(COCc3ccc(F)cc3F)n(C(c3ccccc3)c3ccccc3)c3ccc(Cl)cc23)cc1` [Example 162, 4-[2-(1-benzhydryl-5-chloro-2{[(2,4-difluorobenzyl)oxy]methyl}-1H-indol-3-yl)ethoxy]benzoic acid], for which, for the setting “Conc 1.5 uM, read-out: % Inhibition”, the inhibition at 1.5 µM is 50%. Regarding `COc1cc(C(=O)NS(=O)(=O)c2ccccc2C)ccc1Cc1cn(Cc2ccc3ccccc3c2)c2ccc(NC(=O)OC3CCCC3)cc12` [Example 23, Cyclopentyl N-[3-[2-methoxy-4-({[(2-methylphenyl)sulfonyl]amino}carbonyl)benzyl]-1-(2-naphthylmethyl)-1H-indol-5-yl]carbamate], under “read-out: PERCENT INHIBITION @”, the inhibition at 10 µM is 50%. The inhibition at 20 µM (CONCENTRATION 20 micromolar, read-out: PERCENT INHIBITION @) amounted to 58%.

As for `Cc1c(CCSc2ccc(C(=O)O)cc2)c2cc(Cl)ccc2n1C(c1ccccc1)c1ccccc1` [Example 146, 4-{[2-(1-benzhydryl-5-chloro-2-methyl-1H-indol-3-yl)ethyl]sulfany}benzoic acid], where the note is “Conc 1.6 uM”, the “% Inhibition” value was determined as 50%. For `O=C(O)CN1C(=O)S/C(=C/c2cn(CCCOc3cccc(Cc4ccccc4)c3)c3ccccc23)C1=O` [Example 82C, 2-[5-((E)-{1-[3-(3-benzylphenoxy)propyl]-1H-indol-3-yl}methylidene)-2,4-dioxo-1,3-thiazolan-3-yl]acetic acid], the inhibition at 8 µM (CONCENTRATION 8 micromolar, read-out: PERCENT INHIBITION @) worked out at 50%. Further, the inhibition at 10 µM (read-out: PERCENT INHIBITION @) was 50%. On to `O=C(O)Cc1cn(CC2CC2)c2ccc(Br)cc12` [Example 77, 2-[5-bromo-1-(cyclopropylmethyl)-1H-indol-3-yl]acetic acid], for which the inhibition at 160 µM (CONCENTRATION 160 micromolar, read-out: PERCENT INHIBITION @) was 50%. Also, the inhibition at 180 µM (CONCENTRATION 180 micromolar, read-out: PERCENT INHIBITION @) turned out to be 50%.
